# Patent publication US20110152088A1, “Herbicidal Composition Comprising Flufenacet” (BAYER CROPSCIENCE AG, priority 2009, published 2011)
# Columns and labels:
# [1] = tested on: STEME; test: Greenhouse trial: resistant biotypes following PE application (test method 9); assay type: in vivo, Stellaria media; settings: PE, g of AS/ha: (A) 90, (B) 1200, (C) 140, (A)+(B)+(C) 90 + 1200 + 140, iodosulfuron 10; for activity STEME resistant: resistant biotype; for activity STEME sensitive: sensitive biotype
# Procedure: (§1) In the standard design of the test, seeds of various broad-leaved weed and weed grass biotypes (origins) were sown in a 8-13 cm diameter pot filled with natural soil of a standard field soil (loamy silt; non-sterile) and covered with a covering soil layer of about 1 cm. The pots were then cultivated in a greenhouse (12-16 h of light, temperature day 20-22° C., night 15-18° C.) until the time of application. The pots were treated on a laboratory track sprayer with spray liquors comprising the compositions according to the invention, mixtures of the prior art or components used individually. Application of the active compounds or active compound combinations formulated as WG, WP, EC or otherwise was carried out at the appropriate growth stages of the plants. The application rate for the spray application was 100-600 l of water/ha. After the treatment, the plants were returned to the greenhouses.
# (§2) About 3 weeks after the application, the soil action or/and foliar action was assessed visually according to a scale of 0-100% in comparison to an untreated comparative group: 0%=no noticeable effect compared to the untreated comparative group; 100%=full effect compared to the untreated comparative group.
# (§3) (notes: the term “seeds” also includes vegetative propagation forms such as, for example, rhizome pieces; abbreviations used: h light=hours of illumination, g of AS/ha=gram of active substance per hectare, I/ha=liter per hectare, S=sensitive, R=resistant) • 1. Pre-emergence action against weeds: seeds of various broad-leaved weed and weed grass biotypes (origins) were sown in a 8-13 cm diameter pot filled with natural soil of a standard field soil (loamy silt; non-sterile) and covered with a covering soil layer of about 1 cm. The pots were then cultivated in a greenhouse (12-16 h of light, temperature day 20-22° C., night 15-18° C.) until the time of application. The pots were treated at the BBCH stage 00-10 of the seeds/plants on a laboratory track sprayer with spray liquors comprising the compositions according to the invention, mixtures or components used individually, as WG, WP, EC or other formulations. The application rate for the spray application was 100-600 l of water/ha. After the treatment, the plants were returned to the greenhouses and, when required, treated with fertilizer and watered. • 2. Post-emergence action against weeds: seeds of various broad-leaved weed and weed grass biotypes (origins) were sown in a 8-13 cm diameter pot filled with natural soil of a standard field soil (loamy silt; non-sterile) and covered with a covering soil layer of about 1 cm. The pots were then cultivated in a greenhouse (12-16 h of light, temperature day 20-22° C., night 15-18° C.) until the time of application. The pots were treated at various BBCH stages between 11-25 of the seeds/plants, i.e. generally between two to three weeks after the start of the cultivation, on a laboratory track sprayer with spray liquors comprising the compositions according to the invention, mixtures or components used individually, as WG, WP, EC or other formulations. The application rate for the spray application was 100-600 l of water/ha. After the treatment, the plants were returned to the greenhouses and, when required, treated with fertilizer and watered. • 3. Pre-emergence action against weeds with and without incorporation of active compound: seeds of various broad-leaved weed and weed grass biotypes (origins) were sown in a 8-13 cm diameter pot filled with natural soil of a standard field soil (loamy silt; non-sterile). […]
# [2] = tested on: LOLSS; test: as above; assay type: in vivo, Lolium species; settings: PE, g of AS/ha: (A) 90, (B) 1200, (C) 140, (A)+(B)+(C) 90 + 1200 + 140, iodosulfuron 10; for activity LOLSS resistant: resistant biotype; for activity LOLSS sensitive: sensitive biotype
# Procedure: as §1, §2, §3
# [3] = tested on: MATCH; test: Greenhouse trial: different sowing depths on PE application (test method 10); assay type: in vivo, Matricaria chamomilla; settings: g of AS/ha: (A) 90, (B) 1200, (C) 140, (A)+(B)+(C) 90 + 1200 + 140
# Procedure: as §1, §2, §3
# [4] = tested on: MATCH; test: Greenhouse trial: PE application with different irrigation variants (test method 7); assay type: in vivo, Matricaria chamomilla; settings: g of AS/ha: (A) 120, (B) 1200, (C) 140, (A)+(B)+(C) 120 + 1200 + 140
# Procedure: as §1, §2, §3
# [5] = tested on: MATCH; test: Greenhouse trial: different soil types (test method 8); assay type: in vivo, Matricaria chamomilla; settings: g of AS/ha: (A) 120, (B) 1200, (C) 140, (A)+(B)+(C) 120 + 1200 + 140
# Procedure: as §1, §2, §3
# [6] = tested on: APESV; test: Greenhouse trial: different sowing depths on PE application (test method 10); assay type: in vivo, Apera Spica-venti; settings: g of AS/ha: (A) 90, (B) 1200, (C) 140, (A)+(B)+(C) 90 + 1200 + 140
# Procedure: as §1, §2, §3
# [7] = tested on: POAAN; test: Greenhouse trial: PE soil application vs incorporation into the soil (test methods 1, 3 and 4); assay type: in vivo, Poa annua; settings: g of AS/ha: (A) 120, (B) 1200, (C) 140, (A)+(B)+(C) 120 + 1200 + 140
# Procedure: as §1, §2, §3
# [8] = tested on: APESV; test: Greenhouse trial: PO application (test methods 2 and 5); assay type: in vivo, Apera Spica-venti; settings: g of AS/ha: (A) 120, (B) 1600, (C) 140, (A)+(B)+(C) 120 + 1600 + 140
# Procedure: as §1, §2
# (§4) (notes: the term “seeds” also includes vegetative propagation forms such as, for example, rhizome pieces; abbreviations used: h light=hours of illumination, g of AS/ha=gram of active substance per hectare, I/ha=liter per hectare, S=sensitive, R=resistant) • 1. Pre-emergence action against weeds: seeds of various broad-leaved weed and weed grass biotypes (origins) were sown in a 8-13 cm diameter pot filled with natural soil of a standard field soil (loamy silt; non-sterile) and covered with a covering soil layer of about 1 cm. The pots were then cultivated in a greenhouse (12-16 h of light, temperature day 20-22° C., night 15-18° C.) until the time of application. […]
# [9] = tested on: AVEFA; test: Greenhouse trial: PE application vs application 7 days prior to sowing (test method 6); assay type: in vivo, Avena fatua
# Procedure: as §1, §2, §3
# [10] = tested on: LOLPE; test: as above; assay type: in vivo, Lolium perenne
# Procedure: as §1, §2, §3
# [11] = tested on: LOLPE; test: Greenhouse trial: different soil types (test method 8); assay type: in vivo, Lolium perenne; settings: g of AS/ha: (A) 120, (B) 1200, (C) 90, (A)+(B)+(C) 120 + 1200 + 90
# Procedure: as §1, §2, §3
# [12] = tested on: POAAN; test: Greenhouse trial: PO application (test methods 2 and 5); assay type: in vivo, Poa annua; settings: g of AS/ha: (A) 120, (B) 1600, (C) 140, (A)+(B)+(C) 120 + 1600 + 140
# Procedure: as §1, §2, §4
# [13] = tested on: LOLPE; test: Greenhouse trial: PE application with different irrigation variants (test method 7); assay type: in vivo, Lolium perenne; settings: g of AS/ha: (A) 120, (B) 1200, (C) 140, (A)+(B)+(C) 120 + 1200 + 140
# Procedure: as §1, §2, §3
# [14] = tested on: AVEFA; test: as above; assay type: in vivo, Avena fatua; settings: g of AS/ha: (A) 120, (B) 1200, (C) 140, (A)+(B)+(C) 120 + 1200 + 140
# Procedure: as §1, §2, §3
# [15] = PE application, g of AS/ha: (A) 90, (B) 1200, (C) 140, mixture 90 + 1200 + 140
# [16] = application 7 days prior to sowing, g of AS/ha: (A) 90, (B) 1200, (C) 140, (A)+(B)+(C) 90 + 1200 + 140
compound,measurement,setting,value
COc1nc(C)nc(NC(=O)NS(=O)(=O)c2cc(I)ccc2C(=O)O)n1 [iodosulfuron],activity STEME resistant,[1],40%
same,activity STEME sensitive,[1],90%
same,activity LOLSS resistant,[2],50%
same,activity LOLSS sensitive,[2],98%
"CCCN(CCC)C(=O)SCc1ccccc1 [(B) prosulfocarb, S-(phenylmethyl) dipropylcarbamothioate]",activity STEME resistant,[1],40%
same,activity STEME sensitive,[1],70%
same,activity MATCH 5 mm,[3]; sowing depth 5 mm,0%
same,activity MATCH 20 mm,[3]; sowing depth 20 mm,0%
same,activity MATCH,[4]; Irrigation from above,0%
same,activity MATCH,[4]; Irrigation from below,0%
same,activity MATCH IU soil,[5]; IU soil,10%
same,activity MATCH IU/EC73 soil,[5]; IU/EC73 soil,0%
same,activity APESV 5 mm,[6]; sowing depth 5 mm,50%
same,activity APESV 20 mm,[6]; sowing depth 20 mm,20%
same,activity POAAN,[7]; Incorporation,85%
same,activity POAAN,[7]; PE application,35%
same,activity APESV,[8],20%
same,activity AVEFA,[9]; [15],80%
same,activity AVEFA,[9]; [16],10%
same,activity LOLPE,[10]; [15],80%
same,activity LOLPE,[10]; [16],0%
same,activity LOLPE IU soil,[11]; IU soil,0%
same,"Difference of the soil types Δ^D, LOLPE",[11]; IU/EC73 soil vs IU soil,Δ^D + 0%
same,activity LOLPE IU/EC73 soil,[11]; IU/EC73 soil,0%
same,activity POAAN,[12],30%
same,activity LOLPE,[13]; Irrigation from above,10%
same,activity LOLPE,[13]; Irrigation from below,5%
same,activity LOLSS resistant,[2],65%
same,activity LOLSS sensitive,[2],85%
same,activity AVEFA,[14]; Irrigation from above,5%
same,activity AVEFA,[14]; Irrigation from below,10%
